Source: ChEMBL document CHEMBL4813954, “Dibenzodiazepinone-type muscarinic receptor antagonists conjugated to basic peptides: Impact of the linker moiety and unnatural amino acids on M2R selectivity” (Eur J Med Chem, 2021)
pKi: −log10 of the molar value.

Legend:
[1] = target: T1, Muscarinic acetylcholine receptor M2 (Homo sapiens, UniProt P08172); experiment: Displacement of [3H]-NMS from human muscarinic M2 receptor expressed in CHO cell membranes assessed as inhibition constant by radioligand competition analysis; parameters: species or system Cell membrane
T1 sequence (P08172 whole entry): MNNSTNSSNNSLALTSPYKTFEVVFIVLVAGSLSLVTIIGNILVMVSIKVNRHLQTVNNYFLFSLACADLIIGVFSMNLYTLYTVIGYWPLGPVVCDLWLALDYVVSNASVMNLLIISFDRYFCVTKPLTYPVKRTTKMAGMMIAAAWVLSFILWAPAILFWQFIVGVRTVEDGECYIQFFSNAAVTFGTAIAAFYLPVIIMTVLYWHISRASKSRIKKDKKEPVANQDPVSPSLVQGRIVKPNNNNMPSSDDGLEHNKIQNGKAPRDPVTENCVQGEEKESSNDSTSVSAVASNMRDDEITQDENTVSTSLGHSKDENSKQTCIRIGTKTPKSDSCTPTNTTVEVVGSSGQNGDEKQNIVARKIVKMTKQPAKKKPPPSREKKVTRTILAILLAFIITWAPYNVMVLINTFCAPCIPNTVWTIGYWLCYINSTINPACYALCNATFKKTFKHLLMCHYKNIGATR

[2] = target: Muscarinic acetylcholine receptors; M2 & M3 (Homo sapiens) (UniProt P20309+P08172); experiment: Selectivity index, […] for displacement of [3H]NMS from human recombinant muscarinic receptor M3 expressed in CHO cell membranes […] for displacement of [3H]NMS from human recombinant muscarinic receptor M2 expressed in CHO cell membranes
[3] = target: T2, Muscarinic acetylcholine receptor M4 (Homo sapiens, UniProt P08173); experiment: Displacement of [3H]-NMS from human muscarinic M4 receptor expressed in CHO cell membranes assessed as inhibition constant by radioligand competition analysis; parameters: species or system Cell membrane
T2 sequence (P08173 whole entry): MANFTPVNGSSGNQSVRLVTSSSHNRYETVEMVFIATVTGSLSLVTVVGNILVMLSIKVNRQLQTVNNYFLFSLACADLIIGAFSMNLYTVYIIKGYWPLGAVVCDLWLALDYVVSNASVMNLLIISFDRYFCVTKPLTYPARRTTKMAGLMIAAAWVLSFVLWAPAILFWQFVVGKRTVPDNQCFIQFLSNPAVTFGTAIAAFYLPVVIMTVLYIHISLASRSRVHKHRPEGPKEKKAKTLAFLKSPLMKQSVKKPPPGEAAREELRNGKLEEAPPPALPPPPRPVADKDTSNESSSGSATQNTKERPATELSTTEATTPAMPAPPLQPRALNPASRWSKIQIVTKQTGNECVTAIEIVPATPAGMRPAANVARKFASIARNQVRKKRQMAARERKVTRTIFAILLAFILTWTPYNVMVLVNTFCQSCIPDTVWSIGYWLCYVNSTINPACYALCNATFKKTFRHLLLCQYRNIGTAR

[4] = target: Muscarinic acetylcholine receptor M3 (Homo sapiens, UniProt P20309); experiment: Displacement of [3H]-NMS from human muscarinic M3 receptor expressed in CHO cell membranes assessed as inhibition constant by radioligand competition analysis; parameters: species or system Cell membrane
[5] = target: T3, Muscarinic acetylcholine receptor M5 (Homo sapiens, UniProt P08912); experiment: Displacement of [3H]-NMS from human muscarinic M5 receptor expressed in CHO cell membranes assessed as inhibition constant by radioligand competition analysis; parameters: species or system Cell membrane
T3 sequence (P08912 whole entry): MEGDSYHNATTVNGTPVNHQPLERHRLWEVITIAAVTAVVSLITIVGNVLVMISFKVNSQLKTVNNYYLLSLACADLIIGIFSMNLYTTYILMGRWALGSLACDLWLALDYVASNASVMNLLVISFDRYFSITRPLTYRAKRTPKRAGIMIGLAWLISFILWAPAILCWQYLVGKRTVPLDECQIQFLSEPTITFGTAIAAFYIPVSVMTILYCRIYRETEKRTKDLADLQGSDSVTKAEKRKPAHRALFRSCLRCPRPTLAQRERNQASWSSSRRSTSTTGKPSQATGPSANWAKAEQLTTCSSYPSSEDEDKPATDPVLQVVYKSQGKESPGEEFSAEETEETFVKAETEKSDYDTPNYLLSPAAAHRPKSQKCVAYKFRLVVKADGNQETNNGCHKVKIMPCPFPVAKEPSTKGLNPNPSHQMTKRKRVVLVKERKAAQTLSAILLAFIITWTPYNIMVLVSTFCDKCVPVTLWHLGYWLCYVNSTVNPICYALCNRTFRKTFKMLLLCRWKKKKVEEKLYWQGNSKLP

[6] = target: Muscarinic acetylcholine receptor M2 and M5 (Homo sapiens) (UniProt P08172+P08912); experiment: Selectivity index, […] for displacement of [3H]NMS from human recombinant muscarinic receptor M5 expressed in CHO cell membranes […] for displacement of [3H]NMS from human recombinant muscarinic receptor M2 expressed in CHO cell membranes
[7] = target: T4, Muscarinic acetylcholine receptor M1 (Homo sapiens, UniProt P11229); experiment: Displacement of [3H]-NMS from human muscarinic M1 receptor expressed in CHO cell membranes assessed as inhibition constant by radioligand competition analysis; parameters: species or system Cell membrane
T4 sequence (P11229 whole entry): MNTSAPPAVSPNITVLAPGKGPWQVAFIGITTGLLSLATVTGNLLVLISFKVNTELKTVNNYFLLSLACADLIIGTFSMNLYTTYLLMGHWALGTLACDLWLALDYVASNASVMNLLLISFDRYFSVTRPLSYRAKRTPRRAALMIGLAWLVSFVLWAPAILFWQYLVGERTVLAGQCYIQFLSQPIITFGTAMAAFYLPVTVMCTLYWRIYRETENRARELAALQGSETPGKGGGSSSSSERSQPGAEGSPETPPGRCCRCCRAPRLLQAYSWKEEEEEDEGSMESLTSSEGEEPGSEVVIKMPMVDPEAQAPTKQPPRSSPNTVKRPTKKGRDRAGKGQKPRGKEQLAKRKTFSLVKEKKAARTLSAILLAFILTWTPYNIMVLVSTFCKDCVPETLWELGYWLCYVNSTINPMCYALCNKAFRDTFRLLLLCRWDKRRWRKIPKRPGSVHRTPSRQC

Chain of Muscarinic acetylcholine receptor M3 (P20309 whole entry): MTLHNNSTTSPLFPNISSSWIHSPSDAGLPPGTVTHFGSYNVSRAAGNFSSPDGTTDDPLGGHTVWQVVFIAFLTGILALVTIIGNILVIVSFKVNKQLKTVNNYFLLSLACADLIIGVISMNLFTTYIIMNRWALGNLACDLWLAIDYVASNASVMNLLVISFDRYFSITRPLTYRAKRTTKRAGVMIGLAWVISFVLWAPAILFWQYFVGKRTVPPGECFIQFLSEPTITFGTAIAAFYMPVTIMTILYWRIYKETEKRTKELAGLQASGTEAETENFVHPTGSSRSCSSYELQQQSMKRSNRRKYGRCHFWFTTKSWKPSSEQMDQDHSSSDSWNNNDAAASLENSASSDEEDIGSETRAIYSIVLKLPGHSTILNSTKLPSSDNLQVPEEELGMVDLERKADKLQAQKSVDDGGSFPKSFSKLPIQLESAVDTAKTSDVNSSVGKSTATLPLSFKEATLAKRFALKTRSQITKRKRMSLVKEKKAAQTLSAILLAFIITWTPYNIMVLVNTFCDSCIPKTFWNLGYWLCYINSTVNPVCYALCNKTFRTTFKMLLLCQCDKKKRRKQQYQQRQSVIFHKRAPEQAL

| pKi [1] | Selectivity Index [2] | pKi [3] | pKi [4] | pKi [5] | Selectivity Index [6] | pKi [7] | Structure (SMILES) |
| --- | --- | --- | --- | --- | --- | --- | --- |
| 10.00 | 1800 | 8.70 | 7.00 | 6.40 | 4900 | 8.60 | CC(=O)N[C@@H](CCCCN)C(=O)N[C@@H](C)C(=O)N[C@@H](CCCNC(=N)N)C(=O)NCCN1CCN(CCCCC2CCN(CC(=O)N3c4ccccc4NC(=O)c4ccccc43)CC2)CC1 |
| 6.81 | – | 5.82 | – | – | – | 6.14 | NCCN1CCN(C(=O)CCCC2CCN(CC(=O)N3c4ccccc4NC(=O)c4ccccc43)CC2)CC1 |
| 9.99 | – | 9.10 | – | – | – | 8.87 | N=C(N)NCCC[C@H](N)C(=O)NCCN1CCN(CCCCC2CCN(CC(=O)N3c4ccccc4NC(=O)c4ccccc43)CC2)CC1 |
| 5.21 | – | – | – | – | – | – | CCCN[C@@H](CCCNC(=N)N)C(=O)N[C@@H](C)C(=O)N[C@@H](CCCCN)C(=O)NC(C)=O |
| 9.00 | 6500 | 7.20 | 5.20 | 6.50 | 400 | 7.40 | CC(=O)N[C@@H](CCCCN)C(=O)N[C@@H](CCCNC(=N)N)C(=O)NCCCCC1CCN(CC(=O)N2c3ccccc3NC(=O)c3ccccc32)CC1 |
| 7.63 | – | 6.44 | – | – | – | 6.44 | NCCN1CCN(CCC(=O)NC2CCN(CC(=O)N3c4ccccc4NC(=O)c4ccccc43)CC2)CC1 |
| 5.19 | – | – | – | – | – | – | CCCN[C@@H](CCCNC(=N)N)C(=O)N[C@@H](CCCCN)C(=O)NC(C)=O |
| 9.23 | > 160 | 8.40 | 6.60 | 6.17 | 1300 | 7.93 | N=C(N)NCCC[C@@H](N)C(=O)NCCN1CCN(CCCC2CCN(CC(=O)N3c4ccccc4NC(=O)c4ccccc43)CC2)CC1 |
| 8.45 | – | 7.73 | – | – | – | 7.35 | NCCN1CCN(CCCC2CCN(CC(=O)N3c4ccccc4NC(=O)c4ccccc43)CC2)CC1 |
| 5.35 | – | – | – | – | – | – | CCCN[C@@H](CCNC(=N)N)C(=O)N[C@@H](CCCCN)C(=O)NC(C)=O |
| 9.73 | – | 8.60 | – | – | – | 8.59 | NC1CCN(CCCCC2CCN(CC(=O)N3c4ccccc4NC(=O)c4ccccc43)CC2)CC1 |
| – | 37 | – | – | – | – | – | CCN(CC)CCCCC1CCN(CC(=O)N2c3ccccc3NC(=O)c3ccccc32)CC1 |
| 9.10 | 79 | 8.60 | 7.20 | 6.80 | 230 | 8.10 | CCC(=O)NCCNC(=O)CCc1cn(CCCCC2CCN(CC(=O)N3c4ccccc4NC(=O)c4ccccc43)CC2)cn1 |
| – | 56 | 7.40 | 5.90 | 6.90 | 6.2 | 7.00 | CC(=O)N[C@@H](Cc1c[nH]c2ccccc12)C(=O)N[C@@H](C)C(=O)N[C@@H](Cc1ccc(O)cc1)C(=O)NCCCCC1CCN(CC(=O)N2c3ccccc3NC(=O)c3ccccc32)CC1 |
| 9.64 | – | 8.74 | – | – | – | 9.16 | N=C(N)NCCC[C@@H](N)C(=O)NCCN1CCN(CCCCC2CCN(CC(=O)N3c4ccccc4NC(=O)c4ccccc43)CC2)CC1 |
| 5.61 | – | 4.59 | – | – | – | 4.32 | NCCN1CCN(CC(=O)NC2CCN(CC(=O)N3c4ccccc4NC(=O)c4ccccc43)CC2)CC1 |
| 5.94 | – | 5.96 | – | – | – | 5.53 | NCC(=O)NC1CCN(CC(=O)N2c3ccccc3NC(=O)c3ccccc32)CC1 |

| Structure (SMILES) | pKi [1] | Selectivity Index [2] | pKi [3] | pKi [4] | pKi [5] | Selectivity Index [6] | pKi [7] |
| --- | --- | --- | --- | --- | --- | --- | --- |
| Nc1ccccc1C(=O)N1CCC(N2CCC(Cc3ccc(S(=O)(=O)c4cccc(Cl)c4)cc3)CC2)CC1 | – | – | 7.04 | – | – | – | 6.49 |
